Experimental data reported in BindingDB's records for doi:10.1021/acsmedchemlett.6b00315 (Ghent University, 2017).

Experiments:
[1] = Inhibition of methicillin-resistant Staphylococcus aureus Mu50 TRAP assessed as potentiation of vancomycin-induced antibiofilm activity treated for 4 hrs prior to vancomycin addition measured after 20 hrs
[2] = Inhibition of methicillin-resistant Staphylococcus aureus Mu50 TRAP assessed as potentiation of vancomycin-induced antibiofilm activity cotreated with vancomycin for 24 hrs
[3] = as above; remark: listed apart in the source

| Compound | EC50 [1] | EC50 [2] | EC50 [3] |
| --- | --- | --- | --- |
| O=C(NC[C@]1(O)CO[C@H](CNC(=O)c2ccccc2Cl)[C@H]1O)c1ccoc1 | 68.5 µM | 76.7 µM | – |
| O=C(NC[C@H]1OC[C@@](O)(CNC(=O)C2CCCCC2)[C@@H]1O)c1ccccc1Cl | 9.56 µM | 34 µM | – |
| O=C(NC[C@H]1OC[C@@](O)(CN2Cc3ccccc3C2=O)[C@@H]1O)c1ccccc1Cl | 13.7 µM | 20.9 µM | – |
| Cn1cncc1C(=O)NC[C@H]1OC[C@@](O)(CNC(=O)c2ccccc2)[C@@H]1O | 46.7 µM | 58.2 µM | – |
| Cn1nccc1C(=O)NC[C@H]1OC[C@@](O)(CNC(=O)c2ccccc2)[C@@H]1O | 29.3 µM | 23.5 µM | – |
| O=C(NC[C@]1(O)CO[C@H](CN2C(=O)c3ccccc3C2=O)[C@H]1O)c1ccnnc1 | 5.85 µM | – | 11.4 µM |
| O=C(NC[C@H]1OC[C@@](O)(CN2C(=O)c3ccccc3C2=O)[C@@H]1O)c1ccccc1Cl | 2.63 µM | 39 µM | – |
| O=C(NC[C@H]1OC[C@@](O)(CNC(=O)c2ccccc2Cl)[C@@H]1O)c1ccccc1 | 5.58 µM | – | 15 µM |
| CC(=O)NC[C@]1(O)CO[C@H](CNC(=O)c2ccccc2Cl)[C@H]1O | 15.4 µM | 3.55 µM | – |
| [N-]=[N+]=NC[C@]1(O)CO[C@H](CNC(=O)c2ccccc2Cl)[C@H]1O | 15.1 µM | 2.34 µM | – |
| O=C(NC[C@]1(O)CO[C@H](CNC(=O)c2cccnc2Cl)[C@H]1O)c1ccccc1 | > 250 µM | – | > 250 µM |
| O=C(NC[C@]1(O)CO[C@H](CNC(=O)c2cnccc2Cl)[C@H]1O)c1ccccc1 | 200 µM | – | > 250 µM |
| Cc1ccc(C(=O)NC[C@]2(O)CO[C@H](CNC(=O)c3ccccc3Cl)[C@H]2O)cc1 | 79.7 µM | 41.9 µM | – |
| O=C(NC[C@]1(O)CO[C@H](CNC(=O)c2ccccc2Cl)[C@H]1O)c1ccccc1 | 0.39 µM | – | 7.98 µM |
| O=C(NC[C@H]1OC[C@H](O)[C@@H]1O)c1ccccc1Cl | 11.4 µM | – | 4.99 µM |
| O=C(NC[C@]1(O)CO[C@H](CN2C(=O)c3ccccc3C2=O)[C@H]1O)c1ccccc1Cl | 0.26 µM | – | 1.27 µM |
| O=C(NC[C@H]1OC[C@@](O)(CN2C(=O)c3ccccc3C2=O)[C@@H]1O)c1ccc(-c2ccccc2)cc1 | 24.7 µM | 12.1 µM | – |
| O=C(OC[C@H]1OC(O)[C@@](O)(COC(=O)c2cc(O)c(O)c(O)c2)[C@@H]1O)c1cc(O)c(O)c(O)c1 (some centres undefined) [Hamamelitannin] | 146 µM | 165 µM | – |
| O=C(NC[C@]1(O)CO[C@H](CNC(=O)c2ccccc2Cl)[C@H]1O)c1ccccc1F | 48.6 µM | – | 62.2 µM |
| O=C(NC[C@H]1OC[C@@](O)(CNCc2ccccc2)[C@@H]1O)c1ccccc1Cl | 6.32 µM | 8.42 µM | – |
| O=C(NC[C@]1(O)CO[C@H](CNC(=O)c2ccncc2Cl)[C@H]1O)c1ccccc1 | > 250 µM | – | 232 µM |
| O=C(NC[C@H]1OC[C@@](O)(CNC(=O)c2ccc(-c3ccccc3)cc2)[C@@H]1O)c1ccnnc1 | 8.54 µM | – | 45.4 µM |
